{"source": "patent US8580773B2", "about": "“Small-molecule inhibitors of the androgen receptor” (The Regents of the University of California, priority 2008, dated 2013)", "key": {"[1]": {"biological_target": "T1, endogenous AR (Homo sapiens, UniProt P10275, T878A)", "T1 construct": "that each express endogenous AR; endogenous in cells; host or cells: LNCaP", "T1 sequence (P10275 whole entry T878A)": "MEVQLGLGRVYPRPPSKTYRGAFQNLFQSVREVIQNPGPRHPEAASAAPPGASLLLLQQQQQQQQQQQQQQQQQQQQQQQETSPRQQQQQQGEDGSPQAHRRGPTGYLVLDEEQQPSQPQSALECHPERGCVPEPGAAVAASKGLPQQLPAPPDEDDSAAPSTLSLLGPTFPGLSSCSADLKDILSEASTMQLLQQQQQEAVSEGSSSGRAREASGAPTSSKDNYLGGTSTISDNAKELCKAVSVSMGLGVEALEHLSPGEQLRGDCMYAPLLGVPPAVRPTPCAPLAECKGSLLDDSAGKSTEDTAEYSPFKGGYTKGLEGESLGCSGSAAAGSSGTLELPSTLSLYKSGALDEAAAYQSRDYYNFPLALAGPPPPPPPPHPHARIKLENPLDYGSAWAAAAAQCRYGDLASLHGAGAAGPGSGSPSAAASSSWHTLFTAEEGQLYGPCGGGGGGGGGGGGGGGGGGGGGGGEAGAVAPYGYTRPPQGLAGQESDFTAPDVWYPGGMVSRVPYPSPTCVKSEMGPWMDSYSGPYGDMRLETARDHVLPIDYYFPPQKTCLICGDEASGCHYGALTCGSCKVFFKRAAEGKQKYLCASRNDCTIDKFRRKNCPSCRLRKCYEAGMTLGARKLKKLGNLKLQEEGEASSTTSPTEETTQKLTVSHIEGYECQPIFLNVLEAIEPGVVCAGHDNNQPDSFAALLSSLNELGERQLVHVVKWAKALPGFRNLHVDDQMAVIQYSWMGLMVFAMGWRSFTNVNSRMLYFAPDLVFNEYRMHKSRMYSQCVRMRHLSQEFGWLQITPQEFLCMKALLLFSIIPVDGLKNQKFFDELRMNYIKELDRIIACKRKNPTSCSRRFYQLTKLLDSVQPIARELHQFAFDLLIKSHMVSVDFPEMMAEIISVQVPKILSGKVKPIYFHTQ", "type": "cell-based", "details": "LNCaP, 3 nM DHT plus 1 μM BIC, 100 nM PP or 100 nM HH", "method": "(§1) LAPC4 and LNCaP cells were grown in the presence or absence of 3 nM DHT in charcoal-stripped media, with or without the inhibitors. RNA was harvested using an RNAeasy kit (Qiagen) and reverse transcribed (MMLV-RT, Invitrogen). Real-time PCR was carried out on a 7300 Real Time PCR System (Applied Biosystems) using SYBR green as the detecting dye and Rox as the reference dye. The androgen responsive genes kalikrein 3, or PSA (KLK3) [Cleutjens, K. B., et al., Two androgen response regions cooperate in steroid hormone regulated activity of the prostate-specific antigen promoter. J Biol Chem, 1996. 271(11): p. 6379-88; Nelson, P. S., et al., The program of androgen-responsive genes in neoplastic prostate epithelium. Proc Natl Acad Sci USA, 2002. 99(18): p. 11890-5), metalloproteinase 16 (MMP16) (Nelson, P. S., et al., The program of androgen-responsive genes in neoplastic prostate epithelium. Proc Natl Acad Sci USA, 2002. 99(18): p. 11890-5), transmembrane protease serine 2 (TMPRSS2) (Nelson, P. S., et al., The program of androgen-responsive genes in neoplastic prostate epithelium. Proc Natl Acad Sci USA, 2002. 99(18): p. 11890-5; […] Vaarala, M. H., et al., Expression of transmembrane serine protease TMPRSS2 in mouse and human tissues. J Pathol, 2001. 193(1): p. 134-40), FK506-binding immunophilin 51 (FKBP51) (Nelson, P. S., et al., The program of androgen-responsive genes in neoplastic prostate epithelium. Proc Natl Acad Sci USA, 2002. 99(18): p. 11890-5; Amler, L. C., et al., Dysregulated expression of androgen-responsive and nonresponsive genes in the androgen-independent prostate cancer xenograft model CWR22-R1. Cancer Res, 2000. 60(21): p. 6134-41; Velasco, A. M., et al., Identification and validation of novel androgen-regulated genes in prostate cancer. Endocrinology, 2004. 145(8): p. 3913-24; Magee, J. A., et al., Direct, androgen receptor-mediated regulation of the FKBP5 gene via a distal enhancer element. Endocrinology, 2006. 147(1): p. 590-8), G-protein coupled receptor RDC1 homolog, or chemokine orphan receptor 1 (RDC-1) (Nelson, P. S., et al., The program of androgen-responsive genes in neoplastic prostate epithelium. Proc Natl Acad Sci USA, 2002. 99(18): p. 11890-5), NK homeobox family member 3 (NRx3.1) (Nelson, P. S., et al., The program of androgen-responsive genes in neoplastic prostate epithelium. Proc Natl Acad Sci USA, 2002. 99(18): p. 11890-5; Bieberich, C. J., et al., Prostate-specific and androgen-dependent expression of a novel homeobox gene. J Biol Chem, 1996. 271(50): p. 31779-82; […]) were all normalized to the transcription of the housekeeping ribosomal gene (RPL19). All samples were done in triplicate and separately normalized."}, "[2]": {"biological_target": "T2, endogenous AR (Homo sapiens, UniProt P10275)", "T2 construct": "that each express endogenous AR; endogenous in cells; host or cells: LAPC4", "T2 sequence (P10275 1-920)": "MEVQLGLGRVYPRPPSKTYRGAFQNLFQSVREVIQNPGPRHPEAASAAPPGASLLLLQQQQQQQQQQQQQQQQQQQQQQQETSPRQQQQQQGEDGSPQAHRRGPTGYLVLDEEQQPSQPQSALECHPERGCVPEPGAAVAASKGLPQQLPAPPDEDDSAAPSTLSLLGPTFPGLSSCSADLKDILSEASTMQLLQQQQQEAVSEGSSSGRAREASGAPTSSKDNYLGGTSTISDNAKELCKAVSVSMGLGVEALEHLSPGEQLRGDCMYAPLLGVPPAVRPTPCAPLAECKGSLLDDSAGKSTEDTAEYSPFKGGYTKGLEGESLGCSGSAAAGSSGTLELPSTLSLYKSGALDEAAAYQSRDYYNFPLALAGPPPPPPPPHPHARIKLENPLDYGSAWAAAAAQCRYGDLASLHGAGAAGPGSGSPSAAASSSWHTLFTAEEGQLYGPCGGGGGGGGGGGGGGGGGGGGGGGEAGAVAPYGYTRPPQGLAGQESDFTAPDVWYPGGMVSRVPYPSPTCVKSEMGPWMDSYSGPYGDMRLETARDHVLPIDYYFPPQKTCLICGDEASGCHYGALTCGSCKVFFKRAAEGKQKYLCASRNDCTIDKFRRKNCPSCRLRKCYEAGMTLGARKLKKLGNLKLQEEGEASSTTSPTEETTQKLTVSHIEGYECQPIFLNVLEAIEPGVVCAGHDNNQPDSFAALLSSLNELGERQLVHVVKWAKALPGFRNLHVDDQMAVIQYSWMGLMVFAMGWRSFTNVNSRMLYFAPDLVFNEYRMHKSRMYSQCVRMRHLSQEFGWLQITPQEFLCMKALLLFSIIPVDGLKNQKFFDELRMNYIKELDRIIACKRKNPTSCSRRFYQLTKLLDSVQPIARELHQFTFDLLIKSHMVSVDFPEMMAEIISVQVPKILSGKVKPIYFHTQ", "type": "cell-based", "details": "LAPC4, 3 nM DHT plus 1 μM BIC, 100 nM PP or 100 nM HH", "method": "as §1"}}, "note": "Counter-ions that a name gives are not always drawn."}
{"smiles": "Cc1nccc2c1[nH]c1cc(O)ccc12", "note": "[HH, harmol hydrochloride]", "values": [{"measurement": "KLK3 transcription (normalized to RPL19)", "setting": "[1]; No DHT = 1, 3 nM DHT = 1.89", "value": 1.46}, {"measurement": "Nkx3.1 transcription (normalized to RPL19)", "setting": "[1]; No DHT = 1, 3 nM DHT = 2.00", "value": 1.28}, {"measurement": "FKBP51 transcription (normalized to RPL19)", "setting": "[1]; No DHT = 1, 3 nM DHT = 2.15", "value": 1.90}, {"measurement": "TMPRSS2 transcription (normalized to RPL19)", "setting": "[1]; No DHT = 1, 3 nM DHT = 3.70", "value": 1.22}, {"measurement": "MMP16 transcription (normalized to RPL19)", "setting": "[1]; androgen-repressed gene, No DHT = 1, 3 nM DHT = 0.61", "value": 1.02}, {"measurement": "RDC1 transcription (normalized to RPL19)", "setting": "[1]; androgen-repressed gene, No DHT = 1, 3 nM DHT = 0.66", "value": 1.22}, {"measurement": "Nkx3.1 transcription (normalized to RPL19)", "setting": "[2]; No DHT = 1, 3 nM DHT = 1.08", "value": 1.55}, {"measurement": "TMPRSS2 transcription (normalized to RPL19)", "setting": "[2]; No DHT = 1, 3 nM DHT = 1.13", "value": 1.86}, {"measurement": "KLK3 transcription (normalized to RPL19)", "setting": "[2]; No DHT = 1, 3 nM DHT = 1.97", "value": 1.64}, {"measurement": "FKBP51 transcription (normalized to RPL19)", "setting": "[2]; No DHT = 1, 3 nM DHT = 21.4", "value": 11.96}, {"measurement": "RDC1 transcription (normalized to RPL19)", "setting": "[2]; androgen-repressed gene, No DHT = 1, 3 nM DHT = 0.63", "value": 2.88}, {"measurement": "MMP16 transcription (normalized to RPL19)", "setting": "[2]; androgen-repressed gene, No DHT = 1, 3 nM DHT = 0.71", "value": 4.74}]}
